Data taken from PMC7377239, “Cardiovascular Effects of Polychlorinated Biphenyls and Their Major Metabolites” (Environmental Health Perspectives, 2020).
Structures can show the parent of a compound that is named as a salt. Where two headings read alike, the source gives them in different places.

Columns and labels:
HUVECs = assay: High-content imaging cytotoxicity in HUVECs, 24 h; assay type: cell-based, human; details: Homo sapiens, HUVEC, 24 h, HUVECs; for viability at 0.01 µM / activity at 0.01 µM / viability at 0.1 µM / activity at 0.1 µM / viability at 1 µM / activity at 1 µM / viability at 10 µM / activity at 10 µM / viability at 100 µM / activity at 100 µM: 0.00 µM = 100.00; for viability at 0.1 µM / activity at 0.1 µM: 0.10 µM; for minimal effective concentration: top concentration 100.00 µM
Method in brief: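 Confluent HUVEC monolayers, passages 1–5, received test chemicals for 24 h. Cytotoxicity was scored from triple-stain high-content images, with PODs defined by a one-SD deviation from 0.5% DMSO vehicle controls.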

[1] = tested on: iCell endothelial cells (human iPSC-derived ECs); assay: Tube formation (tubulogenesis) assay in iCell endothelial cells, 18 h; assay type: cell-based; details: Homo sapiens, Endothelial cell, iPSC-EC tube formation, 18 hr; for activity at 0.1 µM: 0.10 µM; for minimal effective concentration: top concentration 100.00 µM
Method in brief: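 Tube formation was measured by calcein AM imaging after overnight compound exposure (37°C, 0.5% DMSO vehicle) of human iPSC-derived ECs, 7,500/well, on reduced-growth-factor Geltrex in starvation medium. Vehicle-normalized data fitted to four-parameter logistic; POD set at one vehicle SD; without response, 100 μM taken as NOAEL.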

[2] = 24 hr, read-out: huvec.cyto.24hr
[3] = 24 hr, read-out: huvec.mito.24hr
[4] = 24 hr, read-out: huvec.mitoint.24hr
[5] = 24 hr, read-out: huvec.nma.24hr
[6] = 24 hr, read-out: huvec.cyto.24hr POD
[7] = 24 hr, read-out: huvec.mito.24hr POD
[8] = 24 hr, read-out: huvec.mitoint.24hr POD
[9] = 24 hr, read-out: huvec.nma.24hr POD
[10] = 24 hrs, read-out: huvec.tc.24hrs
[11] = 24 hrs, read-out: huvec.tc.24hrs POD
[12] = 0.00 µM control = 100.00, read-out: endo.mtl.18hr
[13] = 0.00 µM control = 100.00, read-out: endo.tlps.18hr
[14] = 0.00 µM control = 100.00, read-out: endo.tta.18hr
[15] = 0.00 µM control = 100.00, read-out: endo.ttl.18hr

`O=S(=O)(O)Oc1ccc(-c2ccc(Cl)cc2)cc1` [4'-yl PCB 3 sulfate] showed a viability at 0.01 µM (HUVECs; [2]) of 98.5%, an activity at 0.01 µM (HUVECs; [3]) of 97.5% and an activity at 0.01 µM (HUVECs; [4]) of 90.2%. The activity at 0.01 µM (HUVECs; [5]) was 99%, the viability at 0.1 µM (HUVECs; [2]) was 90.8% and the activity at 0.1 µM (HUVECs; [3]) was 89.7%. The activity at 0.1 µM (HUVECs; [4]) was 109%, the activity at 0.1 µM (HUVECs; [5]) was 102% and the viability at 1 µM (HUVECs; [2]) was 87.4%. The activity at 1 µM (HUVECs; [3]) was 86.3%, the activity at 1 µM (HUVECs; [4]) was 97.9% and the activity at 1 µM (HUVECs; [5]) was 100%. It also gave a viability at 10 µM (HUVECs; [2]) of 103%, an activity at 10 µM (HUVECs; [3]) of 103% and an activity at 10 µM (HUVECs; [4]) of 83.8%. It also gave an activity at 10 µM (HUVECs; [5]) of 97.1%, a viability at 100 µM (HUVECs; [2]) of 88.9% and an activity at 100 µM (HUVECs; [3]) of 87.6%. The activity at 100 µM (HUVECs; [4]) was 114%, the activity at 100 µM (HUVECs; [5]) was 97.7% and the minimal effective concentration (HUVECs; [6]) was 100 µM. The minimal effective concentration (HUVECs; [7]) was 100 µM, the minimal effective concentration (HUVECs; [8]) was 100 µM and the minimal effective concentration (HUVECs; [9]) was 100 µM. It also gave a viability at 0.01 µM (HUVECs; [10]) of 98.5%, a viability at 0.1 µM (HUVECs; [10]) of 90.8% and a viability at 1 µM (HUVECs; [10]) of 87.4%. The viability at 10 µM (HUVECs; [10]) was 103%, the viability at 100 µM (HUVECs; [10]) was 88.9% and the minimal effective concentration (HUVECs; [11]) was 100 µM. The activity at 0.01 µM [1, 12] was 99.2%, the activity at 0.01 µM [1, 13] was 113% and the activity at 0.01 µM [1, 14] was 157%. It also gave an activity at 0.01 µM [1, 15] of 149%, an activity at 0.1 µM [1, 12] of 105% and an activity at 0.1 µM [1, 13] of 129%. The activity at 0.1 µM [1, 14] was 138%, the activity at 0.1 µM [1, 15] was 134% and the activity at 1 µM [1, 12] was 98.2%. It also gave an activity at 1 µM [1, 13] of 137%, an activity at 1 µM [1, 14] of 128% and an activity at 1 µM [1, 15] of 120%. For the same compound, the activity at 10 µM [1, 12] was 74.7%, the activity at 10 µM [1, 13] was 85.4% and the activity at 10 µM [1, 14] was 81.2%. For the same compound, the activity at 10 µM [1, 15] was 76.8%, the activity at 100 µM [1, 12] was 60.3% and the activity at 100 µM [1, 13] was 28%. The activity at 100 µM [1, 14] was 41.8%, the activity at 100 µM [1, 15] was 44.3% and the minimal effective concentration ([1]; read-out: endo.mtl.18hr POD) was 4.33 µM. It also gave a minimal effective concentration ([1]; read-out: endo.tlps.18hr POD) of 11.7 µM, a minimal effective concentration ([1]; read-out: endo.tta.18hr POD) of 16.8 µM and a minimal effective concentration ([1]; read-out: endo.ttl.18hr POD) of 11 µM.

With `O=S(=O)(O)Oc1cc(Cl)c(-c2cc(Cl)ccc2Cl)cc1Cl` [4-yl PCB 52 sulfate] the viability at 0.01 µM (HUVECs; [2]) was 99.3%, the activity at 0.01 µM (HUVECs; [3]) was 98.2% and the activity at 0.01 µM (HUVECs; [4]) was 110%. For the same compound, the activity at 0.01 µM (HUVECs; [5]) was 98.4%, the viability at 0.1 µM (HUVECs; [2]) was 105% and the activity at 0.1 µM (HUVECs; [3]) was 105%. The activity at 0.1 µM (HUVECs; [4]) was 113%, the activity at 0.1 µM (HUVECs; [5]) was 96.2% and the viability at 1 µM (HUVECs; [2]) was 93.5%. For the same compound, the activity at 1 µM (HUVECs; [3]) was 92.9%, the activity at 1 µM (HUVECs; [4]) was 107% and the activity at 1 µM (HUVECs; [5]) was 99.1%. It also gave a viability at 10 µM (HUVECs; [2]) of 91.2%, an activity at 10 µM (HUVECs; [3]) of 89.3% and an activity at 10 µM (HUVECs; [4]) of 111%. It also gave an activity at 10 µM (HUVECs; [5]) of 98.4%, a viability at 100 µM (HUVECs; [2]) of 59.6% and an activity at 100 µM (HUVECs; [3]) of 61.8%. It also gave an activity at 100 µM (HUVECs; [4]) of 74.7%, an activity at 100 µM (HUVECs; [5]) of 206% and a minimal effective concentration (HUVECs; [6]) of 5.38 µM. For the same compound, the minimal effective concentration (HUVECs; [7]) was 3.31 µM, the minimal effective concentration (HUVECs; [8]) was 61.2 µM and the minimal effective concentration (HUVECs; [9]) was 33.9 µM. For the same compound, the viability at 0.01 µM (HUVECs; [10]) was 99.3%, the viability at 0.1 µM (HUVECs; [10]) was 105% and the viability at 1 µM (HUVECs; [10]) was 93.5%. It also gave a viability at 10 µM (HUVECs; [10]) of 91.2%, a viability at 100 µM (HUVECs; [10]) of 61.8% and a minimal effective concentration (HUVECs; [11]) of 5.38 µM. It also gave an activity at 0.01 µM [1, 12] of 116%, an activity at 0.01 µM [1, 13] of 87.8% and an activity at 0.01 µM [1, 14] of 122%. For the same compound, the activity at 0.01 µM [1, 15] was 129%, the activity at 0.1 µM [1, 12] was 108% and the activity at 0.1 µM [1, 13] was 115%. The activity at 0.1 µM [1, 14] was 115%, the activity at 0.1 µM [1, 15] was 119% and the activity at 1 µM [1, 12] was 109%. It also gave an activity at 1 µM [1, 13] of 108%, an activity at 1 µM [1, 14] of 112% and an activity at 1 µM [1, 15] of 119%. The activity at 10 µM [1, 12] was 73.9%, the activity at 10 µM [1, 13] was 46.2% and the activity at 10 µM [1, 14] was 70%. The activity at 10 µM [1, 15] was 71.1%, the activity at 100 µM [1, 12] was 46.8% and the activity at 100 µM [1, 13] was 10.1%. It also gave an activity at 100 µM [1, 14] of 0.18%, an activity at 100 µM [1, 15] of 0.34% and a minimal effective concentration ([1]; read-out: endo.mtl.18hr POD) of 7.44 µM. For the same compound, the minimal effective concentration ([1]; read-out: endo.tlps.18hr POD) was 5.74 µM, the minimal effective concentration ([1]; read-out: endo.tta.18hr POD) was 8.83 µM and the minimal effective concentration ([1]; read-out: endo.ttl.18hr POD) was 9.64 µM.
